The values below come from patent publication US20070185013A1, “Use of chk1 inhibitors to control cell proliferation” (ICOS CORPORATION, priority 2003, published 2007).

One experiment has as its system H460 tumors. Briefly: H3-P staining in H460 tumors after gemcitabine. Format: in vivo, rodent. On the procedure: (§1) Chem. 271:13197-201. 1996; Goto et al., J Biol Chem. 274:25543-9, 1999). The assay protocol was as follows. Tumors from rodents treated or untreated with Chk1 activator (in the present study, chemotherapy agent) and/or Chk1 inhibitor, were excised and paraffin embedded. The tumors are cut into 6 micron thick slices and mounted on glass slides. […] The slides are then heated to 95° C. in 10 mM sodium citrate for 10 minutes followed by a 20 minute cooling step. The slides are blocked for 30 minutes with Block buffer (20% normal human serum and 2% bovine serum albumin in phosphate buffered saline containing 0.05% Triton X-100 (PBST)). The anti-phospho histone H3 antibody (Upstate Biotech, Cat. #06-570) is diluted 1:200 in the Block buffer and incubated with the slides for one hour. The slides are washed 3 times 5 minutes in PBST. The secondary antibody, donkey anti-rabbit rhodamine (Jackson, cat #711-295-152) was added for 30 minutes. The slides were then washed twice in PBST and […] of […] DAPI (Sigma) in PBS is added and allowed to stain for 30 minutes. The slides were then washed two more times in PBST and mounted with Vectashield (Vector, cat # H-1400). Slides were viewed using fluorescence microscopy. The percentage of cells stained with H3-P antibody relative to total (DAPI stained) cells were quantified using Metamorph software (Universal Imaging Corporation, Version 4.6). […]

In another experiment the test system is H460 tumor cells. Briefly: H460 non-small cell lung tumor xenograft model, tumor volume (Example 1). As to conditions: gemcitabine alone, 160 mg/kg q3d×3. It counts as in vivo, mice. An excerpt:
A method of the invention provided an improved antiproliferative effect over co-administration in an art-recognized […] tumor model. In the experiment, gemcitabine was used as the Chk1 activator and a diaryl urea compound according to Keegan et al., PCT/US02/06452, was used as the selective Chk1 inhibitor. (The same Chk1 inhibitor was used in the examples 2-11.) The target phase of gemcitabine is the S phase of the cell cycle. A non-small cell lung tumor xenograft tumor model, H460, was the art-recognized […] tumor model.
Nude mice were engrafted with H460 tumor cells and allowed to grow to an average of 75 mm3. Tumor-bearing mice were then treated with vehicle, gemcitabine or gemcitabine plus 400 mg/kg selective Chk1 inhibitor. The gemcitabine was administered at a dose of 160 mg/kg q3d×3 either simultaneously with the Chk1 inhibitor (co-administration) or, according to the invention, 18 hours prior to the Chk1 inhibitor to allow for S phase synchronization.
Tumors were measured every 2-3 days. On day 10, the median tumor volume for the vehicle group was 10 times the starting volume, while the gemcitabine alone group was four times the starting volume. The tumor volume for the gemcitabine plus Chk1 inhibitor co-administration group was also four times the starting volume. […]

In the next experiment the test system is 137-62 tumors. Briefly: H3-P staining in 137-62 tumors after gemcitabine. Format: in vivo, rat. On the procedure: as §1
The test system of experiment [1] is HT29 tumors. As to the kind of experiment: H3-P mitotic index assay in HT29 tumors. Conditions: for mitotic index (H3-P): 100 mg/kg gemcitabine i.p. It counts as in vivo, mice. On the procedure:
Chem. 271:13197-201. 1996; Goto et al., J Biol Chem. 274:25543-9, 1999). The assay protocol was as follows. Tumors from rodents treated or untreated with Chk1 activator (in the present study, chemotherapy agent) and/or Chk1 inhibitor, were excised and paraffin embedded. The tumors are cut into 6 micron thick slices and mounted on glass slides. […] The slides are then heated to 95° C. in 10 mM sodium citrate for 10 minutes followed by a 20 minute cooling step. The slides are blocked for 30 minutes with Block buffer (20% normal human serum and 2% bovine serum albumin in phosphate buffered saline containing 0.05% Triton X-100 (PBST)). The anti-phospho histone H3 antibody (Upstate Biotech, Cat. #06-570) is diluted 1:200 in the Block buffer and incubated with the slides for one hour. The slides are washed 3 times 5 minutes in PBST. The secondary antibody, donkey anti-rabbit rhodamine (Jackson, cat #711-295-152) was added for 30 minutes. The slides were then washed twice in PBST and […] of […] DAPI (Sigma) in PBS is added and allowed to stain for 30 minutes. The slides were then washed two more times in PBST and mounted with Vectashield (Vector, cat # H-1400). Slides were viewed using fluorescence microscopy. The percentage of cells stained with H3-P antibody relative to total (DAPI stained) cells were quantified using Metamorph software (Universal Imaging Corporation, Version 4.6). […] Tumors from these animals were resected, paraffin embedded and stained with an antibody to H3-P followed by a counter-stained with DAPI. The percentage of mitotic cells (positive to H3-P) was quantified at each time point. […] To determine whether checkpoint abrogation by selective Chk1 inhibitor was dose-dependent, HT29 tumor-bearing mice were pretreated with gemcitabine and 32 hours later dosed with increasing doses of selective Chk1 inhibitor. After 18 hours, tumors were harvested and stained for H3-P as described above. […] The response is saturated at 400 mg/kg.

Experiment [2] has as its system HT29 tumors. Briefly: Rb-Pser795 S phase marker staining of HT29 tumors. It counts as in vivo, mice. As to conditions: 100 mg/kg gemcitabine i.p., 1 to 72 hr. An excerpt: To confirm that low H3-P staining corresponds to S phase arrest, tumors were also stained with an S phase marker, phosphorylated Rb-Pser795. Tumor slices taken in the experiment above were stained with the Rb-Pser795 antibody (Cell Signaling Cat# 9301S) and the number of positive staining cells quantified.

Take `Nc1ccn([C@@H]2O[C@H](CO)[C@@H](O)C2(F)F)c(=O)n1` [gemcitabine]: the “time at which cells exited S phase arrest” value with H460 tumors (H460 cells, after gemcitabine) stood at 48 h; in the experiment with 137-62 tumors (137-62 cells, after gemcitabine) it was 24 h. Further, the “time of lowest H3-P staining” value in the experiment on H460 tumors (H460 tumors treated with gemcitabine) came out at 12 h; with 137-62 tumors (137-62 tumors treated with gemcitabine), 12 h; in the experiment on HT29 tumors [1] (HT29, treated with gemcitabine) it was 48 h. Moreover, in the experiment on H460 tumor cells, the “median tumor volume on day 10” value was “four”. In addition, the “mitotic cells (H3-P positive)” value with HT29 tumors [1] (100 mg/kg gemcitabine for 48 hours alone) was “approximately 4%”. In addition, the “mitotic index (H3-P)” value is listed as “approximately 3” in the experiment with HT29 tumors [1] (1-6 hr time points); “approximately 1.5” in the experiment on HT29 tumors [1] (between 12 and 24 hr after administration). Further, the “time of optimal S phase arrest post-gemcitabine treatment” value in the experiment on HT29 tumors [1] (HT29 tumors, from H3-P and Rb-Pser795 staining) lay within 24 to 48 h. Also, the Rb-P staining cells result in the experiment on HT29 tumors [2] is “more Rb-P staining cells at, 24, 48 and 72 hours than at earlier timepoints”.
